Patent publication US20190008810A1, “METHOD FOR PREVENTION, TREATMENT AND ALLEVIATION OF INFECTIOUS DISEASES AND DISORDERS” (REPLICON HEALTH OY, priority 2016, published 2019)

Columns and labels:
[1] = 3-week safety feeding study with 80 rats; type: in vivo; settings: three doses mixed into chow, 3 weeks; highest more than 100 times human doses
Protocol: Before initiating any clinical tests full proof of safety was received from 3 week in vivo feeding experiments with rats. This 3-week safety study with 80 rats was conducted in Finnish National Institute of Health with three different D-glyceric acid doses mixed into chow. […] Highest doses with rats in the safety study were more than 100 times the doses used for humans in any of the shorter tests presented here.

cortisol, TSH, T4 = experiment: Blood cortisol, TSH and T4 in healthy human volunteers, Example 5a; type: in vivo
Protocol: Blood levels of cortisol, thyroid stimulating hormone (TSH) and thyroxin, i.e. thyroid hormone T4 (T4) from standard EDTA blood sample were measured. 0-control and 2 day follow up measurement were conducted at approximately 08.55 am and the same day, 1.5 hour follow up, at 10:25 am. All measurements were conducted in “half fasting” state, i.e. half of the normal breakfast eaten 1.5 hours before the collection of the blood sample, and the other “half” immediately after 0-control measurement. First measurement without the DGA Activation served as the 0-control for both follow up measurements with the DGA Activation. First “DGA measurement” was conducted after 1.5 hours from 0-control (“fast effect”) and the second after 2 days (“persistent effect”). […] Last dose was 300 mg of D-glyceric acid mixed into water (or 430 mg of D-glyceric acid calcium salt dehydrate mixed into water), and otherwise the daily dose was 2*225 mg D-glyceric acid calcium salt dehydrate mixed into water. Male volunteers S1 and S9 weigh 75 kg and 80 kg respectfully.

metabolism of alcohol = settings: administered with ethanol to rats; cited from earlier work
[2] = tested on: eimeria acervulina, eimeria maxima and eimeria tenella; experiment: Coccidial challenge in broiler chickens, Example 1g; type: in vivo; settings: for overall lesion score, difference to 0-control: day 21
[3] = tested on: IPA mice (conjunctival epithelium, lacrimal gland, goblet cells); experiment: Intensified pathological attack (IPA) dry eye model in mice, Example 1a; type: in vivo; settings: for decrease in the thickening of the conjunctiva compared to relevant control: 7-day IPA, statistically significant
Protocol: In this experiment, intensified pathological attacks towards the eye epithelium is used as a disease model for intensified infectious pressure. The protection of the DGA Activation is measured by inflammatory markers. Because the conjunctival epithelium faces outside environment, the conjunctiva was chosen as one important biomarker. In the following this dry eye disease (also known as keratoconjunctivitis sicca) model experiment is called as the intensified pathological attack model or IPA-model.
All animal experiments were carried out according to the Association for Research in Vision and Ophthalmology and the National Institute of Health (NIH) guidelines for the care and use of laboratory animals. The intensified pathological attack model (IPA-model) was induced to naïve seven-to-ten-week-old C57B1/B6J mice obtained from the vivarium at the University of Eastern Finland. In the experiment 4 cohorts of mice were tested, naïve wild-type mice with IPA (n=5), and IPA mice treated topically with either vehicle (n=5) or (topical) DGA (n=5), and additionally IPA treated mice with orally administered DGA with topical vehicle treatment (n=5). IPA was induced by a combination of scopolamine and exposure to a controlled adverse environment (low humidity, high temperature and high airflow for a period of 7 days) in the IPA-mice system. More detailed treatment and administrations were as follows: Group 1: Non-treated IPA mice, Group 2: IPA mice (topical application of PBS to one eye, the contralateral eye served as control), Group 3: IPA mice topical treatment with DGA (aqueous formulation to one eye, contralateral eye served as control), Group 4: IPA mice—systemic treatment with DGA (ad libitum with chow; topical application of PBS to one eye, the contralateral eye served as control).
The DGA Activation was induced be D-glyceric acid (in its calcium salt form). In the systemic administration, the DGA was mixed into chow ad libitum at the concentration of: 1) 65 mg/kg/day for the first 4 days, and at day 5 at the concentration of 130 mg/kg/day prior the dry-eye induction; 2) thereafter the concentration was 130 mg/kg/day for the whole follow-up period of 7 days. In the topical treatment, the DGA was administered topically, as aqueous formulation in PBS. […]
Tear volume was measured for groups 3 and 4 and later comparison results for group 2 were received. […] In addition, animals were monitored daily for general health status. The lacrimal glands were embedded into paraffin, sectioned, stained and analyzed for possible pathology.

[4] = tested on: rat primary optic nerve astrocytes; experiment: Cell viability (MTT and LDH assays) of rat primary optic nerve astrocytes; type: cell-based
Protocol: For proving the efficacy of DGA Activation in reducing ROS in infectious disorders an in vitro study using rat primary optic nerve astrocytes has been conducted. […] As an important part of the study the cell viability was estimated 6 hours after tBHP administration by two methods, i.e. LDH and MTT assays. Cell viability was measured using the in-house MTT assay (of Experimentica Ltd., Finland) and CytoTox96 non-radioactive cytotoxicity assay (G1780, Promega) in response to oxidative stress primary optic nerve astrocytes. The production of reactive oxygen species (ROS) was measured using CellROX Green (Invitrogen) and isolate RNA in RNALater solution (Ambion). Prior study preparations to find suitable tBHP concentration: The astrocytes where seeded at 5000 cells per well and allowed to grow for 48 hrs to mimic the study. On day 2 the medium was removed and the cells were exposed to a dose response range of tBHP in fresh medium for 6 hrs. The MTT and LDH assay were performed to assess cell survival using the Victor microplate reader. The raw data was given to patent applicant for assessment. […] After 24 hrs the compounds were removed, and readded with new medium for 1 hr, prior to the administration of 85 μM tBHP (FIG. 3c). […]

O=C(O)[C@H](O)CO [DGA, D-glyceric acid]
adverse health effects (feed intake, body weight development) [1]: No adverse health effects were noticed | TSH decline, fast effect (cortisol, TSH, T4; 1.5 hours): −24% | decline of blood cortisol, fast effect (cortisol, TSH, T4; 1.5 hours after dose, both S1 and S9): more than 22% | T4, average change from 0-control (cortisol, TSH, T4; S1 and S9): less than 1% | decrease in blood cortisol (cortisol, TSH, T4; S1 and S9): 20-40% | TSH decline (cortisol, TSH, T4; after 2 days): −13% | metabolism of alcohol (metabolism of alcohol): expedited the metabolism of alcohol | mortality after 14 days ([2]; DGA1 group): no mortality | oocyst count at 7 and 11 days post infection ([2]; DGA1 group): decreased in DGA1 group already in 7 days to similar levels than in P-control | oocyst count at 5 days (acute phase) ([2]; DGA1 group): less than in 0-control | feed conversion rate (FCR) vs 0-control ([2]; DGA1 group, appr. 9 mg/kg/day DGAcs in feed, 14-35, 21-35, 28-35 days, p-values 0.04 to 0.05): statistically significantly better | overall lesion score, difference to 0-control ([2]; DGA1 group): statistically significant only in P-control | body weight gain (14-35 days) vs 0-control ([2]; DGA1 group, p-value 0.002): statistically very significantly higher | difference in oocyst counts after the infection vs 0-control ([2]; DGA1 group, pairwise t-test p 0.04): statistically significant | number of oocyst in 7 and 11 day measurements ([2]; DGA½ group): declined to almost similar levels than in P-control | feed conversion rate (FCR) vs 0-control ([2]; DGA½ group, appr. 4.5 mg/kg/day): better compared to 0-control | overall lesion score, difference to 0-control ([2]; DGA½ group): statistically significant only in P-control | mortality after 14 days ([2]; DGA½ group, one bird clearly ill at slaughtering): no mortality | difference in oocyst counts after the infection vs 0-control ([2]; DGA½ group, pairwise t-test p 0.03): statistically significant | number of goblet cells vs 0-controls ([3]; DGA activation groups vs 0-controls): No meaningful differences | lacrimal gland pathology (inflammation) ([3]; systemic (group 4) vs placebo 0-control): reduces inflammation statistically significantly | decrease in the thickening of the conjunctiva compared to relevant control ([3]; systemic, mixed with chow 130 mg/kg/day): ~20% | decrease in the thickening of the conjunctiva compared to relevant control ([3]; topical eye drops 30 μg/ml, 5 μL 4× daily): ~20% | cell viability after tBHP administration ([4]; 85 μM tBHP, 6 hrs): clearly higher | cell viability compared to 0-controls ([4]; in health (0 μM tBHP) and in disease state (85 μM tBHP)): increases in both
